Results as given in patent publication US9155790B2, “Methods and compositions for modulating ocular damage” (University of Lousiville Research Foundation, Inc., priority 2010, dated 2015).
Entries after “also recorded” stand apart in the source; their conditions may differ.

Tests used:
C57BL/6 mice [1] = assay: Laser-induced subretinal choroidal neovascularization (CNV) in mice; format: in vivo; conditions: for CNV yield (percent of the spots with CNV): read 10 days after laser
Description: In order to test the efficacy of MIF inhibitors to prevent subretinal or intraretinal neovascularization, subretinal choroidal neovascularization (CNV) was induced in C57BL/6 mice (n=3; 6 eyes/per experimental group) using a double-frequency YAG laser (532 nm). Laser parameters were 600 mW of power, 0.1 sec duration, and a spot size of 50 micrometers. Approximately 8-12 spots per eye were placed. One group of animals received 500 micrograms of 4-(2-fluorophenyl)-6-iodopyrimidine (Compound 1) into the posterior subtenon space through a 32-G needle 24 hours before laser application. Compound 1 was dissolved in 1:1 mixture of DMSO and corn oil solvent. The injection volume was 5 microliters.
Another group of animals received the drug six days after the laser photocoagulation when subretinal neovascularization is at its maximum growth. This scenario exemplified the use of MIF inhibitors (including, but not limited to Compound 1) in the treatment of active wet age-related macular degeneration (AMD). The two […] controls received either PBS or DMSO:corn oil mixture into the subTenon space. MIF^−/− animals (i.e., mice with a homozygous knock out of the MIF gene) were also taken as the negative control.
Ten days after the laser photocoagulation animals were perfused with high molecular weight dextran (2 megadalton)-conjugated fluorescein under deep anesthesia and then sacrificed. Choroidal neovascularization (CNV) yield (=percent of the spots with CNV) was determined under a fluorescent microscope.
The effect of MIF neutralization on retinal pigment epithelial (RPE) differentiation and wound healing properties in animal models of chemical RPE debridement and laser-induced choroidal neovascularization (CNV) was tested. CNV was induced in C57BL/6 mice (n=18) using a double-frequency YAG laser (532 nm; 600 mW; 0.1 sec; 50 μm; 8-12 spots/eye). The experimental group (n=6) received 500 μg/in 5 μl of a MIF inhibitor (4-iodo-6-(2-fluorophenyl)pyrimidine; Compound 1) in the posterior subtenon space 24 hours before laser application. Ten (10) days later, animals were sacrificed and induced CNV (i.e., yield) was determined.
(§1) Another group of animals received MIF-inhibitor 6 days after laser treatment to determine the effect of MIF-neutralization on established CNV. RPE loss was also mimicked in twelve C57BL/6 mice by patchy debridement of RPE using intraperitoneal sodium iodate injection (25 mg/kg). Seven days later, animals received the subtenon MIF inhibitor and RPE resurfacing was determined on day 21 by morphometric image analysis. In all experiments, MIF^−/− animals and wild type animals that received the solvent (DMSO/Corn oil) and/or PBS were used as controls.

C57BL/6 mice [2] = assay: Sodium iodate chemical RPE debridement model of geographic atrophy; format: in vivo
Description: as §1
Immunostaining for RPE65, vimentin, E-cadherin, and N-cadherin was used to identify and characterize RPE differentiation.
Sodium iodate was employed for chemical debridement of RPE to mimic geographic atrophy. Mice received NalO3 (25 mg/kg) intraperitoneally followed by subtenon injection of Compound 1 (500 μg in 5 μL) on day 7. Mice were sacrificed on Day 21 and the surface coverage by RPE cells was determined.

C57BL/6 mice [3] = assay: Proliferative vitreoretinopathy (PVR) model, surgically induced retinal detachment in mice; format: in vivo; conditions: 500 μg in 5 μl subtenon on days 0 and 5; light microscopy day 10
Description: The effect of MIF inhibition on EMT was further tested in vivo using an animal model of PVR. Six (6) adult C57BL/6 mice were anesthetized with pentobarbital sodium (70 mg/kg i.p.) and a linear incision was made in the cornea. The lens was removed and a tear was created in the peripheral retina using a 32G needle. The corneal incision was then sutured with 10-0 nylon.
The experimental group received 500 μg/in 5 μl of a MIF inhibitor (4-iodo-6-(2-fluorophenyl)pyrimidine; Compound 1) in the posterior subtenon space on Days 0 and 5, whereas control animals received the solvent. Animals were sacrificed on Day 10 and light microscopy was used to assess the presence and extent of PVR. MIF^−/− animals (n=3) were also used as control.
In order to test the safety and efficacy of MIF neutralization in vivo, the model disclosed in Saika et al., 2004 was employed.
Briefly, retinal detachment was created in three C57BL6 mice. Animals underwent a lensectomy/vitrectomy procedure under ketamine/xylazine anesthesia. These procedures were done through a central slit corneal incision. After the completion of the procedure, a tear was created in the peripheral retina under the microscope and the sensory retina was detached. Next, the cornea was closed with a 10-0 nylon suture and each animal was returned to its cage. […]

Brown Norway rats = assay: PVR / retinal detachment model in Brown Norway rats; format: in vivo
Description: Briefly, retinal detachment was created in three C57BL6 mice. Animals underwent a lensectomy/vitrectomy procedure under ketamine/xylazine anesthesia. These procedures were done through a central slit corneal incision. After the completion of the procedure, a tear was created in the peripheral retina under the microscope and the sensory retina was detached. Next, the cornea was closed with a 10-0 nylon suture and each animal was returned to its cage. The experimental group received 500 μg/in 5 μl of the MIF inhibitor 4-(2-fluorophenyl)-6-iodopyrimidine (Compound 1) in the posterior subtenon space on days 0 and 5, whereas control animals received the solvent (i.e., a 1:1 mixture of DMSO and corn oil). Animals were sacrificed on day 10 and light microscopy was used to assess the presence and extent of PVR. MIF^−/− knockout animals (n=3) were also used as a control.
Similar experiments were also repeated using Brown Norway rats. […] However, in control animals (FIG. 5 I) numerous RPE cells became migratory in the vitreous and started to form epiretinal membranes

primary human RPE cells = assay: EMT of cultured primary human RPE cells (morphology and qPCR); format: cell-based
Description: To determine whether MIF inhibition can prevent the formation proliferative vitreoretinopathy (PVR) by inhibiting epithelio-mesenchymal transformation (EMT) of RPE, primary human RPE cells from two young donors were plated on tissue-culture plastic and maintained in DMEM H16 supplemented with 10% FBS and a MIF inhibitor (4-IPP; 25-50 μM) for 3 weeks. Control cells were exposed only to the solvent (DMSO/Corn oil).
Morphology and qPCR for microphthalmia transcription factor (MITF), plasminogen activator inhibitor type-1 (PAI-1), vimentin, and N-cadherin were used to assay for the presence of EMT.
Human RPE cells were isolated freshly (<24 hours) from human donor eyes. Harvested RPE cells were cultured on tissue-culture plates. 25 μM of 4-IPP, a small molecule antagonist of MIF, was added to the culture medium every other day. Untreated wells were taken as control. 21 days later, cells were photographed and RNA was isolated for qPCR analyses.

[4] = 25 μM every other day, 21 days, qPCR
[5] = 25-50 μM for 3 weeks, qPCR vs control

SMILES: Fc1ccccc1-c1cc(I)ncn1 [Compound 1, 4-(2-fluorophenyl)-6-iodopyrimidine]
- CNV yield (percent of the spots with CNV) (C57BL/6 mice [1]; 500 μg in 5 μl posterior subtenon, 24 hours before laser (pre-laser)): 10.7%
- CNV yield (percent of the spots with CNV) (C57BL/6 mice [1]; 500 μg subtenon 6 days after laser (post-laser, established CNV)): 12.9%
- RPE growth over the laser spot (C57BL/6 mice [1]; histology / fluorescence microscopy of laser spots): RPE cells proliferated to cover the spot; also recorded: RPE proliferated over the laser spot and sealed it off from neovascularization; also recorded: proliferate over the laser spot and seal it off from neovascularization
- occurrence of CNV (FIG. 1) (C57BL/6 mice [1]; post-laser application (5th bar)): significantly suppressed the occurrence of CNV
- occurrence of CNV (FIG. 1) (C57BL/6 mice [1]; pre-laser application (4th bar)): significantly suppressed the occurrence of CNV
- differentiation of proliferating RPE cells (immunostaining) (C57BL/6 mice [2]; MIF-neutralized animals, RPE65, vimentin, E-cadherin, N-cadherin staining): maintained differentiated cuboidal morphology and expressed E-cadherin and RPE-65
- surface coverage by RPE cells vs vehicle (FIG. 7) (C57BL/6 mice [2]; NaIO3 25 mg/kg i.p., 500 μg in 5 μL subtenon on day 7, day 21): statistically significant greater surface coverage
- surface coverage by RPE cells (C57BL/6 mice [2]; sodium iodate 25 mg/kg i.p., subtenon MIF inhibitor on day 7, morphometric image analysis on day 21): 93.8±6.3%
- RPE resurfacing of the denuded Bruch's membrane (FIGS. 8, 9) (C57BL/6 mice [2]; three weeks after partial destruction of RPE cells, vs vehicle): proliferated at a higher rate, resurfaced the Bruch's membrane, and formed an epithelial monolayer; also recorded: better resurfacing of the denuded Bruch's membrane with RPE cells; also recorded: RPE cells established a monolayer in many places; also recorded: proliferated at a higher rate; resurfaced the Bruch's membrane and formed an epithelial monolayer
- RPE cell proliferation (PCNA staining) (C57BL/6 mice [2]; vs vehicle control mice, FIG. 10A): increased cell proliferation; also recorded: higher proliferation of the RPE cells
- apoptotic cell death (TUNEL staining) (C57BL/6 mice [2]; vs vehicle control mice, FIG. 10B): decreased apoptotic cell death
- RPE cell layering / morphology in the subretinal space (C57BL/6 mice [3]): remained as a monolayer; also recorded: maintained an epitheloid monolayer in the subretinal space
- formation / contraction of peri-retinal membranes (PVR) (C57BL/6 mice [3]): significantly inhibited the formation of peri-retinal membranes; also recorded: No physical distortion related with the contraction of periretinal membranes was noted
- RPE morphology and invasion of subretinal / intravitreal space (Brown Norway rats; Brown Norway rats, FIG. 5H, vs control): maintained their epitheloid morphology and did not invade the subretinal and/or intravitreal space
- preservation of photoreceptor cells in the detached retina (Brown Norway rats; FIG. 6A vs vehicle control FIG. 6B): better preservation of the photoreceptor cells in the detached retina; also recorded: better preserved
- outer nuclear layer thickness (Brown Norway rats; detached retina, FIG. 6A vs controls): thicker outer nuclear layer

SMILES: Ic1cc(-c2ccccc2)ncn1 [Compound 4-IPP, 4-iodo-6-phenylpyrimidine]
- MITF mRNA level, control lower than inhibitor-treated cells (primary human RPE cells; [4]): 1.6 fold
- N-cadherin mRNA level, control higher than inhibitor-treated cells (primary human RPE cells; [4]): 43.2 fold
- PAI-1 mRNA level, control higher than inhibitor-treated cells (primary human RPE cells; [4]): 19.7 fold
- vimentin mRNA level, control higher than inhibitor-treated cells (primary human RPE cells; [4]): 8.5 fold
- cell number and morphology of cultured human RPE cells (FIG. 4A) (primary human RPE cells; 25 μM every other day, 21 days, vs control wells): significantly fewer in number, were uniformly pigmented, retained a classical cuboidal epithelial morphology
- increase in MITF mRNA level (primary human RPE cells; [5]): 1.6 ×
- reduction of N-cadherin mRNA level (primary human RPE cells; [5]): 43.2 ×
- reduction of PAI-1 mRNA level (primary human RPE cells; [5]): 19.7 ×
- reduction of vimentin mRNA level (primary human RPE cells; [5]): 8.5 ×
- cell number and morphology of cultured human RPE cells (primary human RPE cells; 25-50 μM for 3 weeks, vs solvent control): significantly fewer in number but maintained their typical cuboidal epithelial morphology
